# Experimental data: patent publication US12606561B2, “Substituted pyrazolo[1,5-a][1,3,5]triazines as CDK inhibitors” (QURIENT CO., LTD., priority 2018, dated 2026)
# Columns and labels:
# [1] = tested on: OVCAR-3; experiment: OVCAR-3 viability assay (CellTiter-Glo, 72 hours); assay type: cell-based; conditions: Homo sapiens; OVCAR-3 cells
# Outline: (§1)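 Cells in RPMI-1640 with 10% FBS were seeded (MV4-11 1×10^4, OVCAR-3 5×10^3, A2780 1×10^3 cells/well) and treated 24 h later with compound at 0.0015–10 uM, final DMSO under 0.1%. After 72 h at 37 °C, viability was read by CellTiter-Glo luminescence, in duplicate.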
# [2] = target: T1, CDK2/Cyclin A (Homo sapiens, UniProt P24941); experiment: Enzymatic assay for CDK2 (LANCE Ultra kinase assay, FRET based); assay type: biochemical; conditions: ATP at Km
# T1 construct: purchased Invitrogen PV6290
# Outline: (§2)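 TR-FRET kinase assay at ATP Km with ULight-MBP peptide (68 nM) and Eu-anti-phospho-MBP antibody; CDK2/Cyclin A at […], CDK5/p25 at […]. 8-dose 4-fold compound dilutions; 60 min kinase reaction at 23° C., EDTA stop, 60 min detection, read at 615/665 nm.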
# [3] = tested on: MV4-11; experiment: Cellular MV4-11 viability assay (CellTiter-Glo, 72 hours); assay type: cell-based; conditions: Homo sapiens; MV4-11 cells
# Experimental: Human […] cell line, MV4-11_(ATCC, Cat #CRL-9591), NSCLC (Non-small cell lung cancer) cell line H460 (ATCC, Cat #HTB-177), A2780 (ECACC, Cat #93112519) and OVCAR-3(ATCC, Cat #HTB-161) were obtained from ATCC. Cells were grown in RPMI-1640 media (Invitrogen, Cat #22400-089) supplemented with 10% FBS (Invitrogen, Cat #10099141) and 1% penicillin/streptomycin (Invitrogen, Cat #15070063) and cultured at 37° C., 5% CO2 in a humidified chamber. All cell lines were routinely tested for mycoplasma.
# To effect of the CDK7 inhibitor to inhibit the growth of target cancer cells, viability assay were conducted a 72 hour time period. Briefly, the candidate cell line was plated in 96 well plate at the following density of cells respectively. 1×10^4 cells/well for MV4-11, 5×10^3 for H460 and OVCAR-3, and 1×10^3 for A2780. After 24 hours, the cells were treated with various concentrations of the compound (ranging from 0.0015 uM to 10 uM). DMSO solvent without compound served as a control and final DMSO concentration lest than 0.1%. After 72 hours of incubation at 37° C., 5% CO2 incubator, cells were analyzed for the viability using the CellTiter-Glo Luminescent Cell Viability Assay (Promega, Cat #G7570). All viability assays were performed in duplicate and Luminescence was read using an Envision (Perkin Elmer, USA). Data was analyzed using XLfit software.
# [4] = target: T2, CDK1/Cyclin B (Homo sapiens, UniProt P06493); experiment: Enzymatic assay for CDK1 (LANCE Ultra kinase assay, FRET based); assay type: biochemical; conditions: ATP at Km; read-out: CDK1 enzymatic activity IC50
# T2 construct: purchased Invitrogen PR4768C
# T2 sequence (P06493 whole entry): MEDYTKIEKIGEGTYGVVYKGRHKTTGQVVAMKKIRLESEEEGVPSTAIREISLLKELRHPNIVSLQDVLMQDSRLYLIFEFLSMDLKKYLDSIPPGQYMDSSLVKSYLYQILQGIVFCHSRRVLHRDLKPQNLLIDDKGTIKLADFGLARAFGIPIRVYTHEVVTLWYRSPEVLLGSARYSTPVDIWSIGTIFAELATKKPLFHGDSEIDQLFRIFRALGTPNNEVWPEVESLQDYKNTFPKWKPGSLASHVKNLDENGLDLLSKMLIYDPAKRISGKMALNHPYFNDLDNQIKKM
# T2 sequence (P14635 whole entry partner): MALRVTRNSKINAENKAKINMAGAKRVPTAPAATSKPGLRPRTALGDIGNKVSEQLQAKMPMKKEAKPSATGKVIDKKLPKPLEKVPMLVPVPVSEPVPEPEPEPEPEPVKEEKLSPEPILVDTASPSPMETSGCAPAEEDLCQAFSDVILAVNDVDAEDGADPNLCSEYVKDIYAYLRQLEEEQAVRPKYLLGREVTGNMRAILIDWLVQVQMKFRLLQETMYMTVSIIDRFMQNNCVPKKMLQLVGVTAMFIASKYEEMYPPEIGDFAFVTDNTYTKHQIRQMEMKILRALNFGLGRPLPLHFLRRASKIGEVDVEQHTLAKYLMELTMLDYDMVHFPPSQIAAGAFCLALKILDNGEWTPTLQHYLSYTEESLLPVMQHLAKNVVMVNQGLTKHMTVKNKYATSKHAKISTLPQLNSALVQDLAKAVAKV
# Outline: (§3)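 TR-FRET (LANCE Ultra) kinase assays with a ULight-labelled peptide substrate and a Europium-labelled anti-phospho antibody. ATP was set at its Km for each kinase. Inhibition was measured on purified CDK/cyclin complexes: CDK7/Cyclin H/MNAT1 and CDK1/Cyclin B.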
# [5] = tested on: A2780; experiment: A2780 viability assay (CellTiter-Glo, 72 hours); assay type: cell-based; conditions: Homo sapiens; A2780 cells
# Outline: as §1
# [6] = target: T3, CDK5/p25 (Homo sapiens, UniProt Q00535); experiment: Enzymatic assay for CDK5 (LANCE Ultra kinase assay, FRET based); assay type: biochemical; conditions: ATP at Km
# T3 construct: purchased Invitrogen PR8543B
# T3 sequence (Q00535 whole entry): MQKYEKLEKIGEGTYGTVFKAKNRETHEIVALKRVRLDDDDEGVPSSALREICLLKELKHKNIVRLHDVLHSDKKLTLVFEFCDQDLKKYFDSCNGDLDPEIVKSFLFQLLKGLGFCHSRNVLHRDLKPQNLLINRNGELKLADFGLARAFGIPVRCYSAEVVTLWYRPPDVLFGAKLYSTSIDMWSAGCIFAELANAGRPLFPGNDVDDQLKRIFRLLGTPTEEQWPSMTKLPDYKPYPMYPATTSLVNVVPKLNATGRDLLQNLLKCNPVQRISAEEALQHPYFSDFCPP
# T3 sequence (Q15078 99-307 partner limits assumed): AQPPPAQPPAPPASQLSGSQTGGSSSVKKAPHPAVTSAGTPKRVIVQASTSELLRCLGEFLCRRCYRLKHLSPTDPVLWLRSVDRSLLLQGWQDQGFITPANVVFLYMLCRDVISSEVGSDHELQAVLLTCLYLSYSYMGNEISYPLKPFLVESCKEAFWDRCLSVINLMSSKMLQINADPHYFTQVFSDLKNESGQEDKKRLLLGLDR
# Outline: as §2
# [7] = target: T4, CDK7/Cyclin H/MNAT1 (Homo sapiens, UniProt P50613); experiment: Enzymatic assay for CDK7 (LANCE Ultra kinase assay, FRET based); assay type: biochemical; conditions: for IC50: ATP at Km
# T4 construct: purchased Invitrogen PR6749B
# T4 sequence (P50613 whole entry): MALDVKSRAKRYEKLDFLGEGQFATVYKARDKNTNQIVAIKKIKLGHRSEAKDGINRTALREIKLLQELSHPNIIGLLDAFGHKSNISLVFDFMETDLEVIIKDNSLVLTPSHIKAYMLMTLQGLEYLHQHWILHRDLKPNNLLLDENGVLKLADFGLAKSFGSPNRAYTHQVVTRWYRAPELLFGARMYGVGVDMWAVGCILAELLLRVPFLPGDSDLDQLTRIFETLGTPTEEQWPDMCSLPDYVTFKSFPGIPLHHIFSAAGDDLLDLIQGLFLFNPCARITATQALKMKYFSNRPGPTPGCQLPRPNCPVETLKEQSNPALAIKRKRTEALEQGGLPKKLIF
# T4 sequence (P51946 whole entry partner): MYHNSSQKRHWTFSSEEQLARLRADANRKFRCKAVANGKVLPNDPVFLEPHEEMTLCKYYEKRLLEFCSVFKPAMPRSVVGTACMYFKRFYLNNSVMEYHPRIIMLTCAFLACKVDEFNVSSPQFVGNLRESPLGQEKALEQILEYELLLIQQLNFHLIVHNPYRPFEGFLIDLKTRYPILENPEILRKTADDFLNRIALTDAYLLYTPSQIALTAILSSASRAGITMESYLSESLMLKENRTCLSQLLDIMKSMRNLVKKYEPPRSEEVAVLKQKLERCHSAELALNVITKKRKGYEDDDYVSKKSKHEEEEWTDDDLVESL
# T4 sequence (P51948 whole entry partner): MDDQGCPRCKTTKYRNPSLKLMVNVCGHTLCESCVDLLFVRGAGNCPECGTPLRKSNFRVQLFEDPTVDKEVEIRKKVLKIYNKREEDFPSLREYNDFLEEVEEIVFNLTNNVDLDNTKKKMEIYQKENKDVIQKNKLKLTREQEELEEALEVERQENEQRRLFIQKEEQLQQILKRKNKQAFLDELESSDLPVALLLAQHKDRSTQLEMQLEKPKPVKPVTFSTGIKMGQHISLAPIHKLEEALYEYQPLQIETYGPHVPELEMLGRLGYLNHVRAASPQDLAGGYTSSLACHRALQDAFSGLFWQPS
# Outline: as §3
Structure (SMILES),IC50 [1] [nM],IC50 [2] [nM],IC50 [3] [nM],IC50 [4] [nM],IC50 [5] [nM],IC50 [6] [nM],IC50 [7] [nM],CDK1/CDK7: Selectivity of CDK7 inhibition over CDK1 inhibition [7],CDK2/CDK7: Selectivity of CDK7 inhibition over CDK2 inhibition [7],CDK5/CDK7: Selectivity of CDK7 inhibition over CDK5 inhibition [7]
C=CC(=O)Nc1ccc2c(-c3ccccc3CNc3nc(NC[C@H]4CCNC[C@@H]4O)nc4c(C(C)C)cnn34)nccc2c1 [Compound 60],< 1000,> 1000,< 1000,> 1000,< 1000,> 1000,< 100,A (A indicates [fold] > 500),A (A indicates [fold] > 500),A (A indicates [fold] > 500)
C/C=C/C(=O)Nc1ccc2c(-c3ccccc3CNc3nc(NCC4CNCCO4)nc4c(C(C)C)cnn34)nccc2c1 (racemic) [Compound 69],< 1000,> 1000,< 1000,> 1000,< 1000,> 1000,< 100,B (B indicates 50 < [fold] ≤ 500),B (B indicates 50 < [fold] ≤ 500),B (B indicates 50 < [fold] ≤ 500)
C=C(C)C(=O)Nc1ccc2c(-c3ccccc3CNc3nc(NC[C@H]4CCNC[C@@H]4O)nc4c(C(C)C)cnn34)nccc2c1 [Compound 66],< 1000,> 1000,< 1000,> 1000,< 1000,> 1000,< 100,A (A indicates [fold] > 500),A (A indicates [fold] > 500),A (A indicates [fold] > 500)
CC(C)c1cnn2c(NCc3ccccc3-c3nccc4cc(NC(=O)/C=C/CN(C)C)ccc34)nc(N3CCC(CO)CC3)nc12 [Compound 29],< 1000,> 1000,< 1000,> 1000,< 1000,> 1000,100 to 1000,B (B indicates 50 < [fold] ≤ 500),B (B indicates 50 < [fold] ≤ 500),B (B indicates 50 < [fold] ≤ 500)
CC(C)c1cnn2c(NCc3ccccc3-c3nccc4cc(NC(=O)/C=C/CN5CCOCC5)ccc34)nc(N3CCC(N)CC3)nc12 [Compound 53],< 1000,> 1000,< 1000,> 1000,< 1000,> 1000,< 100,A (A indicates [fold] > 500),A (A indicates [fold] > 500),A (A indicates [fold] > 500)
CC(C)c1cnn2c(NCc3ccccc3-c3nccc4cc(NC(=O)/C=C/CN(C)C)ccc34)nc(NCCC(C)(C)O)nc12 [Compound 35],< 1000,> 1000,< 1000,> 1000,< 1000,> 1000,< 100,B (B indicates 50 < [fold] ≤ 500),B (B indicates 50 < [fold] ≤ 500),B (B indicates 50 < [fold] ≤ 500)
CC(C)=CC(=O)Nc1ccc2c(-c3ccccc3CNc3nc(N4CCC(N)CC4)nc4c(C(C)C)cnn34)nccc2c1 [Compound 40],< 1000,> 1000,< 1000,> 1000,< 1000,> 1000,< 100,A (A indicates [fold] > 500),A (A indicates [fold] > 500),B (B indicates 50 < [fold] ≤ 500)
